Results as given in patent publication US10245256B2, “Nitroxides for use in treating or preventing diabetes and obesity” (Mitos Pharmaceuticals, Inc., priority 2005, dated 2019).

How the values were obtained:
[1] = system: keratinocyte growth factor; test: Protein level of keratinocyte growth factor in pancreatic ductal cells of patient after Tempol treatment; format: in vivo, human; details: 1500 mg per day for 180 days
Procedure: (§1) A 70-kilogram diabetic patient is administered a dose of 1500 mg of Tempol per day for 180 days. This may be administered in a single dose, or may be administered as a number of smaller doses over a 24-hour period: for example, three 500-mg doses at eight-hour intervals. Following treatment, the protein level of keratinocyte growth factor in the pancreatic ductal cells, and the serum level of adiponectin, is increased.
as §1, with “70-kilogram” for “70-kilogram diabetic”, “patient at risk for but not yet diagnosed with diabetes” for “patient”

[2] = system: Adiponectin, C1Q and collagen domain containing (ADIPOQ); test: Gene expression in adipose tissue of mice fed Tempol, Affymetrix MOE430A 2.0 array; format: in vivo; details: 5 g/kg of diet from 12 through 15 months
Procedure: In a further gene expression study, Tempol was administered to experimental mice at a dose of 5 g/kg of diet from 12 months through 15 months. Mice receiving the same diet without the addition of Tempol were used as a negative control. At the age of 15 months, the adipose tissue of the experimental animals was obtained. The expression of a broad spectrum of genes in the adipose tissue was assessed using chip-based microarray technology. Specifically, in this case an Affymetrix MOE430A 2.0 array, containing 12,960 genes, was employed. Such chips are well known in the art and are widely used to assess gene expression.

[3] = system: Keratinocyte Growth Factor (Fibroblast Growth Factor 7); test: Gene expression in cardiac tissue of mice fed Tempol, chip-based microarray; format: in vivo; details: 5 mg/g of food from 14 to 31 months
Procedure: To assess the effects of Tempol on gene expression, Tempol was administered to experimental mice at a dose of 5 mg/g of food from 14 months to 31 months after birth. Mice receiving the same food without the addition of Tempol were used as a negative control. At the age of 31 months, the experimental animals were sacrificed and the hearts were surgically removed. The expression of a broad spectrum of genes in the cardiac tissue was assessed using chip-based microarray technology. Such chips are well known in the art and are widely used to assess gene expression.

[4] = system: adiponectin; test: Serum level of adiponectin of patient after Tempol treatment; format: in vivo, human; details: 1500 mg per day for 180 days
Procedure: as §1
as §1, with “70-kilogram” for “70-kilogram diabetic”, “patient at risk for but not yet diagnosed with diabetes” for “patient”

[5] = 70-kilogram patient at risk for but not yet diagnosed with diabetes

CC1(C)CC(O)CC(C)(C)N1[O] [Tempol, 4-hydroxy-2,2,6,6-tetramethylpiperidine-1-oxyl]
protein level of keratinocyte growth factor in the pancreatic ductal cells ([1]; 70-kilogram diabetic patient): increased
protein level of keratinocyte growth factor in the pancreatic ductal cells [1, 5]: increased
Mean adiponectin expression (Tempol-treated mice) ([2]; microarray signal, control mean 27698): 33876
Fold change of adiponectin expression ([2]; Tempol-treated vs control mice, P value 0.003): increase in expression
KGF expression, TEMPOL-treated mouse tp51 ([3]; microarray signal, individual animal tp51): 13
KGF expression, TEMPOL-treated mouse tp52 ([3]; microarray signal, individual animal tp52): 52
KGF expression, TEMPOL-treated mouse tp53 ([3]; microarray signal, individual animal tp53): 96
Fold change of KGF expression ([3]; TEMPOL-treated vs control mice): 2.1 fold
serum level of adiponectin ([4]; 70-kilogram diabetic patient): increased
serum level of adiponectin [4, 5]: increased
